# Data: patent publication US10550130B2, “Benzo-thiazolo-imidazole compounds and uses thereof” (KING SAUD UNIVERSITY, priority 2015, dated 2020)
# Experiments:
# Type in all cases: cell-based
# SKBR-3 = experiment: Annexin V binding by flow cytometry (apoptosis)
# Description: (§1) It is known that loss of phospholipid asymmetry of the plasma membrane is an early event of apoptosis. The annexin V binds to negatively charged phospholipids, like phosphatidylserine. During apoptosis, the cells react to annexin V once chromatin condenses but before the plasma membrane loses its ability to exclude propidium iodide (PI).
# (§2) Annexin-V staining was performed by using Vybrant Apoptosis Assay Kit #2 (Molecular Probes) following the manufacturer's recommendations. Annexin-V stained cells were analyzed by flow cytometry, measuring the fluorescence emission between 515 nm to 545 nm.
# (§3) To evaluate the selective-apoptotic effect of the compound in cancer cells but not normal cells, the cancer cell lines SKBR3, MDA-MB-468, and normal cells MCF-10 A, HSFN1 (human foreskin cells) and BM4 (bone marrow derived mesenchymal stem cells) were used. […] Upon treatment of cells with 20 μM for 48 h, cells were stained with Annexin-V and PI and binding of Annexin-V and PI to the cells was determined by flow cytometry.
# (§4) In a next step, it was investigated whether there was a correlation between Numb protein expression and sensitivity of a cell line to the apoptotic effects of KSA-101696. Apoptotic cells were determined by Annexin-V staining as described in Example 1.
# MDA-MB-468 = experiment: Annexin V binding by flow cytometry (apoptosis)
# Description: as §1, §2, §3, §4
# Numb = experiment: Immunofluorescence of Numb in MDA-MB-231 breast cancer cells; conditions: MDA-MB-231 cells; 0.01, 0.1, 1 or 10 μM
# Description: MDA-MB-231 breast cancer cells were treated either with vehicle (control) or with 0.01 μM, 0.1 μM, 1 μM or 10 μM final concentration of doxorubicin, taxotere or KSA-101696. Then, the cells were cytospun to glass slides by centrifugation at 800 rpm for 3 min. Slides were then air-dried overnight and 4% formaldehyde fixed for 10 min. For staining, the cell membrane was permeabilized with 0.5% triton-X (Sigma) followed by overnight incubation with primary antibodies (anti-Numb, Abcam) and (anti-intracellular Notch-1, Cell Signalling) at 1:100. Cells were washed and stained with AlexaFluor goat anti-rabbit IgG 488 (Invitrogenat) 1:400 for 30 minutes. 300 nM DAPI (Invitrogen, Carlsbad, Calif., USA) was added for 10 minutes to counterstain the nuclei. Slides were mounted and immunofluorescence was visualized using BD Pathway 855 microscope.
# Numb exerts its functional role on cell fate decisions by antagonizing Notch signaling activities. The molecular mechanisms underlying this relationship appear to rely on the ubiquitination of the membrane bound Notch-1 receptor and the subsequent degradation of its NICD (Notch intracellular domain) following receptor activation.
# [1] = system: colony forming SKBR3 cells; experiment: 2-D colony formation assay; conditions: 5000 viable cells from the ALDEFLUOR assay cells; 60 mm dish
# Description: Cells were treated with different concentration of the compound or control medium containing 0.1% DMSO for 72 h. Cells were harvested and counted by using trypan blue to exclude the dead cells. A 5000 viable cells of treated and control cells were suspended in 3 ml DMEM supplemented with 10% FBS (Cambrex Bio Science) and seeded in a 60 mm tissue culture dish (Falcon, BD). The next day, a new fresh media was added and the cells were allowed to grow forming colonies for 14 d. The cells were then stained with methylene blue (Sigma-Aldrich, St. Louis, Mo., USA) and colonies containing more than 20 cells were counted.
# Thus, from the same cells as used in the ALDEFLUOR assay, 5000 viable cells were seeded in a 60 mm tissue culture dish.
# SP cells of MCF-7 = experiment: Mammosphere formation assay
# Description: (§5) Cell were harvested and counted by using trypan blue to exclude the dead cells. Cells cultured in suspension (1000 cells/100 μL) in serum-free mammary epithelium basal medium, supplemented with B27 supplement 1:50; (GIBCO), 20 ng/mL EGF (epidermal growth factor; Preprotech), 5 μg/mL insulin (Sigma), 1% Antibiotic-Antimycotic (GIBCO) and 0.5 μg/ml hydrocortisone (Sigma), as described previously (Dontu et al.). Mammospheres were allowed to grow for 7 days, then treated for 72 h by either control media (0.1% DMSO) or media containing different concentrations of the compound. Mammospheres were counted on a Leitz Labovert inverted Microscope. Mammosphere size was measured and a picture was taken on a Evos transmitted light microscope.
# (§6) It is known that one of the properties of stem/progenitor cells is their ability to survive under anchorage-independent conditions and generate mammospheres, which are composed of a small number of stem cells. Given that CSCs generally make up for a small minority of the cells within cancer cell populations, the dye DyeCycle Violet was used to isolate SP cells (side population cells; the side population is enriched for stem/progenitor cells), through a BD FACSAria™ cell sorter. Subsequently, the isolated SP cells were used in a Mammosphere Formation Assay. SP cells of MCF-7 and BT-474 formed more mammospheres than non-SP cells (see FIG. 4A).
# (§7) Treatment of 7 days old mammospheres of both cell lines with 5 μM of KSA-101696 decreased the number of mammospheres formed by 50% compared to DMSO treatment (FIG. 4A).
# SP cells of BT-474 = experiment: Mammosphere formation assay; conditions: 5 μM, 7 days old mammospheres
# Description: as §5, §6, §7
# [2] = system: THP-1 acute monocytic leukemia cells; experiment: CD34 positive cell population by flow cytometry; conditions: 48 h
# Description: THP-1 leukemic cells were cultured in RPMI medium in […] flask and treated with KSA-101696 for 48 h. Cells were then washed and stained with anti-CD34-FITC (BD biosciences) for 30 min at room temperature. The hematopoietic stem cell population (CD34 positive cells) was analyzed by flow cytometry to evaluate the effect of KAS-101696 on hematopoietic stem cells of leukemic origin.
smiles,measurement,setting,value
"COc1ccc(-c2csc3nc4ccccc4n23)cc1 [KSA-101696, 3-(4-methoxyphenyl)benzo[4,5]imidazo[2,1-b]thiazole]",apoptosis (Annexin-V) in relation to Numb expression,"SKBR-3; SKBR-3, low levels of Numb expression, FIG. 9B",increased apoptosis
same,apoptosis (Annexin-V and PI),"SKBR-3; SKBR-3, 20 μM, 48 h",induced apoptosis
same,apoptosis (Annexin-V) in relation to Numb expression,"MDA-MB-468; MDA-MB-468, low levels of Numb expression, FIG. 9B",increased apoptosis
same,apoptosis (Annexin-V and PI),"MDA-MB-468; MDA-MB-468, 20 μM, 48 h",induced apoptosis
same,Numb expression (immunofluorescence microscopy),Numb,induced Numb
same,inhibition of colony forming cells,[1],showed the same activity in inhibition of colony forming cells
same,decrease of number of mammospheres formed compared to DMSO,"SP cells of MCF-7; MCF-7, 5 μM, 7 days old mammospheres",50%
same,size of treated mammospheres,SP cells of MCF-7; cell line not specified (FIG. 4B),reduction in the size
same,decrease of number of mammospheres formed compared to DMSO,SP cells of BT-474,50%
same,CD34+ cells percentage,[2],reduction of CD34^+ cells percentage
